Data published in US9561201B2, “Therapeutic compounds” (Fibrotech Therapeutics Pty Ltd, priority 2006, dated 2017).

Key:
[1] = system: Neonatal rat cardiac fibroblasts (NCFs); assay: NCF TGF-β collagen synthesis, 3H-proline incorporation (Example 6); assay type: cell-based
Experimental: Neonatal SD rat cardiac myocytes (NCMs) and fibroblasts (NCFs) were isolated from one-day-old pups with enzymatic digestion as described in detail previously. NCFs were seeded and maintained in high-glucose (25 mmol/L) Dulbecco's modified Eagle's medium (DMEM) (Invitrogen Mount Waverley, Vic, Australia) in the presence of 1% antibiotic/antimycotic (AB/AM) and 10% fetal bovine serum (FBS) (JRH biosciences, Kansas, USA). NCFs were used at passage 2 [31]. Purified NCMs were seeded (1000 cells/mm^2) in 6-well plates and then maintained in serum-free DMEM (Invitrogen, NY, USA) supplemented with insulin and transferrin as described previously (4). Bromodeoxyuridine was included for the first 3 days. 50 mmol/L KCl was added to the medium to prevent spontaneous contraction characteristic of the plated NCMs.
NCFs collagen synthesis assays were performed as described previously. Briefly, NCFs plated at a density of 50,000 cells/well in 12-well plate and incubated overnight. NCFs were then serum starved for 24 hours in high-glucose DMEM. […]
For collagen synthesis, 1 μCi of [^3H]-Proline was added to each well and incubated for further 48 hours before harvest. Cells were harvested by precipitation with 10% TCA on ice for 30 min, before solubilisation with 0.75 mL of 1 mol/L NaOH overnight at 4° C. The samples were then neutralized with 1 mol/L HCl and ^3H level were counted with 10 ml scintillation fluid on a beta-counter to determine [^3H]-proline incorporation.

rat mesangial cell line [2] = assay: TGF-β stimulated 3H-proline incorporation in mesangial cells (Example 5); assay type: cell-based; conditions: for inhibition at 10 µM / inhibition at 30 µM / inhibition at 1 µM / inhibition at 3 µM: Rattus norvegicus, Mesangial cell, 5 ng/mL TGF-β1, 44 h, read-out: Mesangial Cell Assay TGF-β % reduction of TGF-β stimulation_proline inc.; for Collagen synthesis: inhibition ranked against tranilast (T) or FT11
Experimental: (§1) A well-characterized cloned rat mesangial cell line (gift of D Nikolic-Patterson) is cultured in DMEM with FBS, 100 U/mL penicillin, and 100 ug/mL streptomycin in a humidified 5% CO2 atmosphere at 37° C. Cells are plated into 24-well culture dishes in DMEM/10% FBS at low density and allowed to adhere overnight. Cells are used between passages 20 and 40. The subconfluent cells are starved overnight in DMEM/0.1% FBS containing 150 uM L-ascorbic acid, prior to 4 hours of pre-treatment with or without tranilast or the FT compounds, followed by the addition of 5 ng/mL rhTGF-β11 (R&D Systems) and 1 uCi/mL of L-(2,3,4,5-^3H)-proline. Control wells have the compounds but no TGF-β1 added. Cells are incubated for a further 44 hours during which time their appearance is visually monitored. The cells are then washed three times in ice-cold PBS, twice in ice cold 10% TCA and solubilized in 750 uL 1M NaOH for 45 minutes at 37° C. or overnight at 4° C. A 500 uL aliquot is neutralized with 500 uL 1M HCl and 10 mL scintillation fluid (Instagel Plus-Perkin-Elmer) added. Counts are performed on a beta counter.
To normalize the proline incorporation counts to take into account the proliferative effects of TGF-β1, a BioRad protein assay is performed on a 100-150 uL aliquot of the remaining solubilized cells. The sample is neutralized with an equal amount of 1M HCl prior to the assay. The BSA standards used to construct the standard curve have the same amount of 1M NaOH and 1M HCl added as is present in the samples for assay.
Proline incorporation is expressed as cpm/ug protein. In order to compare inter-assay results, the incorporation is expressed as percentage reduction of TGF stimulated proline incorporation, where TGF alone gives 0% reduction and the zero control gives 100% reduction.

rat mesangial cell line [3] = assay: Effect on mesangial cell appearance (visual monitoring during proline assay); assay type: cell-based
Experimental: as §1
Compounds in Bold have Minimal Effect on Cell Appearance and Viability

Mesangial cells = assay: Mesangial cell MTT assay with TGF-β; assay type: cell-based, rat; conditions: @ 30 μM; suppressed = reduced cell viability
Experimental: Mesangial cells are plated at 15000 cells per well into 96-well culture dishes in DMEM/10% FBS and allowed to adhere overnight. The subconfluent cells are starved overnight in DMEM/0.1% FBS, prior to 4 hours of pre-treatment with or without tranilast or the FT compounds. Following the addition of 5 ng/mL rhTGF-β1, the cells are incubated in a humidified 5% CO2 atmosphere at 37° C. for 44 hours. Control wells have the compounds but no TGF-β1 added. The culture medium is removed from each well and 100 uL MTT (0.5 mg/mL) in starve medium is added to each well. The plates are incubated for a further 4 hours at 37° C. The culture medium is then removed and replaced with 100 μL isopropanol and incubated at 37° C. for 20 to 30 minutes, until the blue formazan crystals have dissolved. The absorbance is measured at a wavelength of 570 nm with background subtraction of 690 nm.
Suppressed MTT Result Indicates Reduced Cell Viability

## C#CCOc1cc(/C=C/C(=O)Nc2ccccc2C(=O)O)ccc1OC [Analogue 17, (E)-2-[[3-(4-Methoxy-3-propargyloxyphenyl)-1-oxo-2-propenyl]amino]benzoic acid]
[1]; @ 30 μM
  NCF TGF-β Collagen Synthesis: ~70% at
Rat mesangial cell line [2]
  inhibition at 10 µM: 20 to 50%
  inhibition at 30 µM: ~55%
  Collagen synthesis: >=FT11

## COc1cc(/C=C/C(=O)Nc2ccccc2C(=O)O)ccc1OC1CCCC1 [Analogue 26, (E)-2-{[3-(4-Cyclopentyloxy-3-methoxyphenyl)-1-oxo-2-propenyl]amino}benzoic acid]
[1]; @ 10 μM
  NCF TGF-β Collagen Synthesis: 28% at
Rat mesangial cell line [3]; @ 30 μM
  Effect on mesangial cell appearance: sparse
Rat mesangial cell line [3]; @ 100 μM
  Effect on mesangial cell appearance: lifting off
other
  melting point: 96 to 98 °C
Rat mesangial cell line [2]
  inhibition at 1 µM: ~13%
  inhibition at 3 µM: 30%
  inhibition at 10 µM: 85%
  inhibition at 30 µM: 93%
  Collagen synthesis: >FT11

## COc1ccc(/C=C/C(=O)Nc2ccccc2C(=O)O)cc1OC1CCCC1 [Analogue 29, (E)-2-{[3-(3-Cyclopentyloxy-4-methoxyphenyl)-1-oxo-2-propenyl]amino}benzoic acid]
[1]; @ 10 μM
  NCF TGF-β Collagen Synthesis: 10% @ 10 μM
[1]; @ 30 μM
  NCF TGF-β Collagen Synthesis: 25% @ 30 μM
Rat mesangial cell line [3]; @ 10 μM
  Effect on mesangial cell appearance: Sparse @
Rat mesangial cell line [3]; @ 100 μM
  Effect on mesangial cell appearance: Stressed @
Mesangial cells
  Mesangial cell MTT Assay TGF-β: Suppressed
other
  melting point: 211 to 217 °C
Rat mesangial cell line [2]
  inhibition at 1 µM: ~8%
  inhibition at 3 µM: 40%
  inhibition at 10 µM: ~90%
  Collagen synthesis: >FT11
